Data published in patent US10226445B2, “Pharmaceutical preparations” (Symrise AG, priority 2013, dated 2019).

Test system: HGT-1 cells
Assay: Intracellular pH / proton secretion of HGT-1 cell cultures (SNARF-1-AM dye)
Type: cell-based, human
Conditions: for activation at 30 µM: 0.03 mM substance of group (a) alone; for activation at 300 µM: 0.3 mM substance of group (a) alone; for stimulation of proton secretion by 3 mM caffeine or 0.3 mM theobromine (in words): additional administration at a concentration of 0.3 mM; for induced gastric acid secretion (in words): preparations with caffeine and/or theobromine as component (b); for proton secretion in the HGT-1 cells (in words): substances of group (b), Tables 1A and 1B
Procedure: Human parietal cells, also known as human gastric tumor cell line (HGT-1), are used as cell model. These were provided by Dr. C. Laboisse (Laboratory of Pathological Anatomy, Nantes, France). The cells were cultured under standard conditions at 37° C., 5% CO2 in DMEM (Dulbecco's Modified Eagle's Medium) with 4 g/l glucose, 10% FBS, 2% L-glutamine and 1% penicillin/streptomycin. For the measurement of the intracellular proton concentration, the cells are treated with trypsin/EDTA, the viability determined by means of trypan blue staining and 100 000 cells/well seeded in black 96-well plates.
To measure the intracellular pH, the dye 1,5-carboxyseminaphthorhodafluoro acetoxymethyl ester (SNARF-1-AM) is used. The cells in the 96-well plates are washed once with Krebs-Hepes buffer (KRHP) and incubated at 37° C. and 5% CO2 for 30 min with the dye dissolved in KRHP at a concentration of 3 μM. The cells are then washed twice with KRHP and substances of group (b), for example 3 mM caffeine or 0.3 mM theobromine, alone or in combination with substances of group (a), for example, homoeriodictyol (HED) or eriodictyol or matairesinol, lariciresinol or enterolactone, are applied in volumes of 100 μl at various concentrations in phenol red-free DMEM; as additional control experiments, the abovementioned substances of group (a) are tested alone. Homoeriodictyol is dissolved in double-distilled water while eriodictyol, matairesinol, lariciresinol or enterolactone are dissolved in ethanol (EtOH). The final concentration of solvent which is added to the cells is at most 1%. The fluorescent dye is excited at a wavelength of 488 nm and the emission measured at 580 nm and 640 nm. The ratio of the fluorescence values at 580 nm to 640 nm is compared to a calibration curve from which the pH can be determined. For the calibration curve, the cells are treated with a potassium phosphate buffer of different pH values from pH 7.2-8.2 and 2 μM nigericin. Nigericin equilibrates the intracellular and extracellular pH such that the intracellular pH may be defined. The intracellular H^+ concentration is determined from the intracellular pH. The intracellular proton index (IPX) is calculated by log 2 transformation of the ratio of treated cells and untreated cells (control). […] The number of replicates specified refers to the technical replicates (tr) or the number or total replicates (n), which results from the number of technical replicates multiplied by the number of biological replicates.

[1] = 0.03 mM substance of group (a) in combination with 0.3 mM theobromine, 10 minutes
[2] = 0.03 mM substance of group (a) in combination with 3 mM caffeine, 10 minutes
[3] = 0.3 mM substance of group (a) in combination with 0.3 mM theobromine, 10 minutes
[4] = 0.3 mM substance of group (a) in combination with 3 mM caffeine, 10 minutes
[5] = Homo sapiens, HGT-1, 10 min, 10 minutes, read-out: T/C [%], percentage increase of the proton secretion compared to untreated controls

SMILES	T/C [%], percentage increase of the proton secretion compared to untreated controls [1]	T/C [%], percentage increase of the proton secretion compared to untreated controls [2]	T/C [%], percentage increase of the proton secretion compared to untreated controls [3]	T/C [%], percentage increase of the proton secretion compared to untreated controls [4]	activation at 30 µM [5]	activation at 300 µM [5]	stimulation of proton secretion by 3 mM caffeine or 0.3 mM theobromine (in words)	induced gastric acid secretion (in words)	T/C [%], percentage increase of the proton secretion compared to untreated controls (3 mM substance + 1% EtOH, 10 minutes stimulation)	proton secretion in the HGT-1 cells (in words)	T/C [%], percentage increase of the proton secretion compared to untreated controls (0.3 mM substance of group (b) + 1% EtOH, 10 minutes stimulation)	T/C [%], percentage increase of the proton secretion compared to untreated controls (0.003 mM substance of group (a) in combination with 0.3 mM theobromine, 10 minutes)	activation at 3 µM (Homo sapiens, HGT-1, 10 min, 0.003 mM substance of group (a) alone, 10 minutes, read-out: T/C [%], percentage increase of the proton secretion compared to untreated controls)	activation at 1000 µM (Homo sapiens, HGT-1, 10 min, 1 mM substance alone, 10 minutes stimulation, read-out: T/C [%], percentage increase of the proton secretion compared to untreated controls)
COc1cc(C[C@H]2COC(=O)[C@@H]2Cc2ccc(O)c(OC)c2)ccc1O [Matairesinol, matairesinol]	23.41%	14.39%	−18.25%	−20.43%	-9.4%	-31.7%	reduced or completely inhibited	highest reduction or complete inhibition	–	–	–	–	–	–
COc1cc(C[C@H]2CO[C@H](c3ccc(O)c(OC)c3)[C@H]2CO)ccc1O [Lariciresinol, lariciresinol]	31.73%	46.40%	17.55%	21.57%	6.4%	-2.04%	reduced or completely inhibited	highest reduction or complete inhibition	–	–	–	–	–	–
Cn1c(=O)c2c(ncn2C)n(C)c1=O [Caffeine, caffeine, reference compound]	–	–	–	–	–	–	–	–	44.92%	stimulated	–	–	–	–
O=C1OC[C@@H](Cc2cccc(O)c2)[C@@H]1Cc1cccc(O)c1 [Enterolactone, enterolactone]	–	23.41%	–	−18.25%	-2.76%	-27.3%	reduced or completely inhibited	highest reduction or complete inhibition	–	–	–	–	–	–
Cn1cnc2c1c(=O)[nH]c(=O)n2C [Theobromine, theobromine, reference compound]	–	–	–	–	–	–	–	–	–	stimulated	32.11%	–	–	–
COc1cc(C2CC(=O)c3c(O)cc(O)cc3O2)ccc1O (stereo not drawn) [HED, homoeriodictyol]	13.79%	37.99%	−16.92%	20.18%	12.7%	-3.66%	reduced or completely inhibited	highest reduction or complete inhibition	–	–	–	21.56%	-8.04%	–
O=C1CC(c2ccc(O)c(O)c2)Oc2cc(O)cc(O)c21 (stereo not drawn) [Eriodictyol, eriodictyol]	23.95%	29.69%	−42.86%	−33.96%	-10.8%	-11.7%	reduced or completely inhibited	highest reduction or complete inhibition	–	–	–	–	–	–
NCCc1c[nH]cn1 [Histamine, reference compound]	–	–	–	–	–	–	–	–	–	–	–	–	–	27.4%
